Assay results published in patent US20240425479A1, “HALO-SUBSTITUTED AMINO AZA-HETEROARYL COMPOUNDS AS INHIBITORS OF THE HAEMATOPOIETIC PROGENITOR KINASE 1 (HPK1)” (priority 2021, published 2024).

molecular target: T1, Recombinant (1-346) HPK1 (h) (Homo sapiens, UniProt Q92918); experiment: HPK1 human STE kinase enzymatic radiometric assay; assay type: biochemical; conditions: read-out: HPK1 IC50 nM Range
T1 construct: Recombinant (1-346) HPK1 (h) is incubated with 8 mM MOPS pH 7.0
T1 sequence (Q92918 1-346): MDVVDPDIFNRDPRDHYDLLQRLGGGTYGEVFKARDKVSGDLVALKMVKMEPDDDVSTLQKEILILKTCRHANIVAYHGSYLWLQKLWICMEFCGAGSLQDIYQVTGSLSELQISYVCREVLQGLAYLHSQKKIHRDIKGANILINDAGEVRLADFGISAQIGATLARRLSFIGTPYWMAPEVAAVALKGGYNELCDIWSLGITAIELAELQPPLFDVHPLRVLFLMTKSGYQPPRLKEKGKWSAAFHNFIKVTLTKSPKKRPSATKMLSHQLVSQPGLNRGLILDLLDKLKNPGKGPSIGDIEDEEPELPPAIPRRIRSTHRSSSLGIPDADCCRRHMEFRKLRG
Procedure, shortened: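 Recombinant HPK1 (1-346) incubated 40 min at RT with 0.33 mg/mL myelin basic protein and [gamma-33P]-ATP in 8 mM MOPS pH 7.0, 0.2 mM EDTA, 10 mM Mg acetate; reaction started with Mg/ATP. Stopped with 0.5% phosphoric acid, spotted on P30 filtermat, washed, scintillation counted. Compounds tested as 9-point 3-fold dilutions.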

`CO[C@@H]1CCN(Cc2cc(-c3nc(-c4ccc5c(c4)CCNC5=O)c(N)nc3F)ccc2N2CCOCC2)C1` [Example I-151, (R)-6-(3-amino-5-fluoro-6-(3-((3-methoxypyrrolidin-1-yl)methyl)-4-morpholinophenyl)pyrazin-2-yl)-3,4-dihydroisoquinolin-1(2H)-one] and `CO[C@H]1CCN(Cc2cc(-c3nc(-c4cc5c(cc4F)C(=O)NCC5)c(N)nc3F)ccc2N2CCOCC2)C1` [Example I-157, (S)-6-(3-amino-5-fluoro-6-(3-((3-methoxypyrrolidin-1-yl)methyl)-4-morpholinophenyl)pyrazin-2-yl)-7-fluoro-3,4-dihydroisoquinolin-1(2H)-one] fall in the same range of IC50: 0.1 to 10 nM for the first, 0.1 to 10 nM for the second.

`COCCN(C)Cc1cc(-c2nc(-c3ccc4c(c3)CCNC4=O)c(N)nc2F)ccc1N1CCOCC1` [Example I-160, 6-(3-amino-5-fluoro-6-(3-(((2-methoxyethyl)(methyl)amino)methyl)-4-morpholinophenyl)pyrazin-2-yl)-3,4-dihydroisoquinolin-1(2H)-one] and `COCCN(C)Cc1cc(-c2nc(-c3ccc4c(c3)CCNC4=O)c(N)nc2F)ccc1C1CCOCC1` [Example I-174, 6-(3-amino-5-fluoro-6-(3-(((2-methoxyethyl)(methyl)amino)methyl)-4-(tetrahydro-2H-pyran-4-yl)phenyl)pyrazin-2-yl)-3,4-dihydroisoquinolin-1(2H)-one] fall in the same range of IC50: 0.1 to 10 nM for the first, 0.1 to 10 nM for the second.

`COC1CN(Cc2cc(-c3nc(-c4cc5c(cc4F)C(=O)NCC5)c(N)nc3F)ccc2N2CCOCC2)C1` [Example I-189, 6-(3-amino-5-fluoro-6-(3-((3-methoxyazetidin-1-yl)methyl)-4-morpholinophenyl)pyrazin-2-yl)-7-fluoro-3,4-dihydroisoquinolin-1(2H)-one] and `COC1CN(Cc2cc(-c3nc(-c4cc5c(cc4F)C(=O)NCC5)c(N)nc3F)ccc2C2CCOCC2)C1` [Example I-190, 6-(3-amino-5-fluoro-6-(3-((3-methoxyazetidin-1-yl)methyl)-4-(tetrahydro-2H-pyran-4-yl)phenyl)pyrazin-2-yl)-7-fluoro-3,4-dihydroisoquinolin-1(2H)-one] fall in the same range of IC50: 0.1 to 10 nM for the first, 0.1 to 10 nM for the second.

Compared with `C[C@H]1CN(c2ccc(-c3nc(-c4ccc5c(c4)CCNC5=O)c(N)nc3F)cc2CN(C)C)CCO1` [Example I-211, (S)-6-(3-amino-6-(3-((dimethylamino)methyl)-4-(2-methylmorpholino)phenyl)-5-fluoropyrazin-2-yl)-3,4-dihydroisoquinolin-1(2H)-one], `CN(C)Cc1c(N2CCOCC2)ccc(-c2nc(-c3ccc4c(c3)CCNC4=O)c(N)nc2F)c1F` [Example I-240] is higher in IC50: 0.1 to 10 nM for the first, 11 to 100 nM for the second. The first is the more potent here.

`Nc1nc(F)c(-c2ccc(N3CCN(CC4CC4)CC3)cc2)nc1-c1cc2c(F)c[nH]c(=O)c2cc1F` [Example I-141, 6-(3-amino-6-(4-(4-(cyclopropylmethyl)piperazin-1-yl)phenyl)-5-fluoropyrazin-2-yl)-4,7-difluoroisoquinolin-1(2H)-one] and `Cc1c[nH]c(=O)c2ccc(-c3nc(-c4ccc(N5CCN(C6CCC6)CC5)cc4)c(F)nc3N)cc12` [Example I-139, 6-(3-amino-6-(4-(4-cyclobutylpiperazin-1-yl)phenyl)-5-fluoropyrazin-2-yl)-4-methylisoquinolin-1(2H)-one] fall in the same range of IC50: 0.1 to 10 nM for the first, 0.1 to 10 nM for the second.

`COC1CCN(Cc2cc(-c3nc(-c4cc5c(cc4F)C(=O)NCC5)c(N)nc3F)ccc2C2CCOCC2)CC1` [Example I-132, 6-(3-amino-5-fluoro-6-(3-((4-methoxypiperidin-1-yl)methyl)-4-(tetrahydro-2H-pyran-4-yl)phenyl)pyrazin-2-yl)-7-fluoro-3,4-dihydroisoquinolin-1(2H)-one] and `C[C@H]1CCCN1Cc1cc(-c2nc(-c3cc(F)c4c(c3)CCNC4=O)c(N)nc2F)ccc1C1CCOCC1` [Example I-220, (S)-6-(3-amino-5-fluoro-6-(3-((2-methylpyrrolidin-1-yl)methyl)-4-(tetrahydro-2H-pyran-4-yl)phenyl)pyrazin-2-yl)-8-fluoro-3,4-dihydroisoquinolin-1(2H)-one] fall in the same range of IC50: 11 to 100 nM for the first, 11 to 100 nM for the second.

`CN(C)Cc1cc(-c2nc(-c3cc(F)c4c(=O)[nH]cc(F)c4c3)c(N)nc2F)ccc1N1CCOCC1` [Example I-120, 6-(3-amino-6-(3-((dimethylamino)methyl)-4-morpholinophenyl)-5-fluoropyrazin-2-yl)-4,8-difluoroisoquinolin-1(2H)-one] and `CN(C)[C@@H]1COc2ccc(-c3nc(-c4cc(F)c5c(=O)[nH]cc(F)c5c4)c(N)nc3F)cc21` [Example I-253, (S)-6-(3-amino-6-(3-(dimethylamino)-2,3-dihydrobenzofuran-5-yl)-5-fluoropyrazin-2-yl)-4,8-difluoroisoquinolin-1(2H)-one] fall in the same range of IC50: 0.1 to 10 nM for the first, 0.1 to 10 nM for the second.

First: COCCN(C)Cc1cc(-c2nc(-c3cc(F)c4c(c3)CCNC4=O)c(N)nc2F)ccc1C1CCOCC1 [Example I-176, 6-(3-amino-5-fluoro-6-(3-(((2-methoxyethyl)(methyl)amino)methyl)-4-(tetrahydro-2H-pyran-4-yl)phenyl)pyrazin-2-yl)-8-fluoro-3,4-dihydroisoquinolin-1(2H)-one]
Second: CN(C)[C@@H]1CCOc2ccc(-c3nc(-c4cc(F)c5c(c4)CCNC5=O)c(N)nc3F)cc21 [Example I-289, (R)-6-(3-amino-6-(4-(dimethylamino)chroman-6-yl)-5-fluoropyrazin-2-yl)-8-fluoro-3,4-dihydroisoquinolin-1(2H)-one]
The IC50 of the first is lower: 0.1 to 10 nM for the first, 11 to 100 nM for the second.

`CN(C)Cc1cc(-c2nc(-c3ccc4c(=O)[nH]cc(F)c4c3)c(N)nc2F)ccc1F` [Example I-276, 6-(3-amino-6-(3-((dimethylamino)methyl)-4-fluorophenyl)-5-fluoropyrazin-2-yl)-4-fluoroisoquinolin-1(2H)-one] and `CCN(C)Cc1cc(-c2nc(-c3ccc4c(=O)[nH]cc(F)c4c3)c(N)nc2F)ccc1C1=CCOCC1` [Example I-282, 6-(3-amino-6-(4-(3,6-dihydro-2H-pyran-4-yl)-3-((ethyl(methyl)amino)methyl)phenyl)-5-fluoropyrazin-2-yl)-4-fluoroisoquinolin-1(2H)-one] fall in the same range of IC50: 11 to 100 nM for the first, 11 to 100 nM for the second.

First: C[C@@H]1CN(c2ccc(-c3nc(-c4ccc5c(=O)[nH]cc(Cl)c5c4)c(N)nc3F)cc2CN(C)C)C[C@H](C)O1 [Example I-231, 6-(3-amino-6-(3-((dimethylamino)methyl)-4-((2R,6S)-2,6-dimethylmorpholino)phenyl)-5-fluoropyrazin-2-yl)-4-chloroisoquinolin-1(2H)-one]
Second: Cc1c[nH]c(=O)c2ccc(-c3nc(-c4ccc5c(c4)[C@H](N(C)C)CO5)c(F)nc3N)cc12 [Example I-284, (S)-6-(3-amino-6-(3-(dimethylamino)-2,3-dihydrobenzofuran-5-yl)-5-fluoropyrazin-2-yl)-4-methylisoquinolin-1(2H)-one]
The IC50 of the first is lower: 0.1 to 10 nM for the first, 11 to 100 nM for the second.

`Nc1nc(F)c(-c2ccc(C3CCOCC3)c(CN3CCC3)c2)nc1-c1ccc2c(=O)[nH]cc(F)c2c1` [Example I-204, 6-(3-amino-6-(3-(azetidin-1-ylmethyl)-4-(tetrahydro-2H-pyran-4-yl)phenyl)-5-fluoropyrazin-2-yl)-4-fluoroisoquinolin-1(2H)-one] and `Cc1c[nH]c(=O)c2ccc(-c3nc(-c4ccc(C5CCOCC5)c(CN5CCCC5)c4)c(F)nc3N)cc12` [Example I-205, 6-(3-amino-5-fluoro-6-(3-(pyrrolidin-1-ylmethyl)-4-(tetrahydro-2H-pyran-4-yl)phenyl)pyrazin-2-yl)-4-methylisoquinolin-1(2H)-one] fall in the same range of IC50: 0.1 to 10 nM for the first, 0.1 to 10 nM for the second.

First: Nc1nc(F)c(-c2ccc(N3CCOCC3)cc2)nc1-c1cc2c(cc1F)C(=O)NCC2 [Example I-34, 6-(3-amino-5-fluoro-6-(4-morpholinophenyl)pyrazin-2-yl)-7-fluoro-3,4-dihydroisoquinolin-1(2H)-one]
Second: CCN(C)Cc1c(N2CCOCC2)ccc(-c2nc(-c3ccc4c(c3)CCNC4=O)c(N)nc2F)c1F [Example I-248, 6-(3-amino-6-(3-((ethyl(methyl)amino)methyl)-2-fluoro-4-morpholinophenyl)-5-fluoropyrazin-2-yl)-3,4-dihydroisoquinolin-1(2H)-one]
The IC50 of the first is lower: 0.1 to 10 nM for the first, 11 to 100 nM for the second.

Compared with `CC1NC(=O)c2c(F)cc(-c3nc(-c4ccc(N5CCN(C6CCC6)CC5)cc4)c(F)nc3N)cc2C1(F)F` (stereo not shown) [Example I-150, 6-(3-amino-6-(4-(4-cyclobutylpiperazin-1-yl)phenyl)-5-fluoropyrazin-2-yl)-4,4,8-trifluoro-3-methyl-3,4-dihydroisoquinolin-1(2H)-one], `Nc1nc(F)c(-c2ccc(N3CCN(CCC(F)F)CC3)cc2)nc1-c1cc(F)c2c(c1)CCNC2=O` [Example I-82, 6-(3-amino-6-(4-(4-(3,3-difluoropropyl)piperazin-1-yl)phenyl)-5-fluoropyrazin-2-yl)-8-fluoro-3,4-dihydroisoquinolin-1(2H)-one] is lower in IC50: 11 to 100 nM for the first, 0.1 to 10 nM for the second. The second is the more potent here.

`Nc1nc(F)c(-c2ccc(N3CCN(C4COC4)CC3)cc2)nc1-c1ccc2c(c1)CCNC2=O` [Example I-46, 6-(3-amino-5-fluoro-6-(4-(4-(oxetan-3-yl)piperazin-1-yl)phenyl)pyrazin-2-yl)-3,4-dihydroisoquinolin-1(2H)-one] and `Cc1c[nH]c(=O)c2ccc(-c3nc(-c4ccc(C5CCOCC5)cc4)c(F)nc3N)cc12` [Example I-181, 6-(3-amino-5-fluoro-6-(4-(tetrahydro-2H-pyran-4-yl)phenyl)pyrazin-2-yl)-4-methylisoquinolin-1(2H)-one] fall in the same range of IC50: 0.1 to 10 nM for the first, 0.1 to 10 nM for the second.
